Reference: patent US11306063B2, “Heterocyclic naphthoquinones derivatives for use in the treatment of cancers including Cushing disease” (Commissariat a l'Energie Atomique et aux Energies …, priority 2016, dated 2022)
Each block holds one compound with its values, some of them ahead of it.

Key:
Type in all cases: biochemical
[1] = molecular target: T1, USP2 full length (USP2^FL) (Homo sapiens, UniProt O75604); assay: Inhibition of Ub-AMC hydrolysis by USP2 full length; conditions: Ub-AMC at 1 μM, Table 1a; for inhibition at 1 µM: 1 μM compound; for inhibition at 5 µM: 5 μM compound; for inhibition at 25 µM: 25 μM compound; for inhibition at 50 µM: 50 μM compound
T1 construct: purchased BioSciences 80352
T1 sequence (O75604 1-605): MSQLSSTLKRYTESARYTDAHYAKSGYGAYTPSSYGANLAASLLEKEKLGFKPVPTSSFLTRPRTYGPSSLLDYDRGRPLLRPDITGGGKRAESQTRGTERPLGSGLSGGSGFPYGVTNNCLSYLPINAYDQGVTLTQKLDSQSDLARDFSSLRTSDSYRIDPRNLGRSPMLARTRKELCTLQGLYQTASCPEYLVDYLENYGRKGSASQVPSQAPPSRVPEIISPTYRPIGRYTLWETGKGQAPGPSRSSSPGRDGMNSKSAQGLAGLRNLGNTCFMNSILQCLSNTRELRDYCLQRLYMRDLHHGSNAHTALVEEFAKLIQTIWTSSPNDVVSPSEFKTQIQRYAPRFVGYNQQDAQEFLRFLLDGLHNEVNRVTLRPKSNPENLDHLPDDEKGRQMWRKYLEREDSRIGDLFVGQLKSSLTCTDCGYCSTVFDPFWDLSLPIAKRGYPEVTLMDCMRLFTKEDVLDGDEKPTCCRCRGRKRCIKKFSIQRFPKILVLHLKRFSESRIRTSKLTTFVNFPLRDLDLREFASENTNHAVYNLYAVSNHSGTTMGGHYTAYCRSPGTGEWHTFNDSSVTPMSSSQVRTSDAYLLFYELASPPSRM
Description: (§1) Enzymatic assay was performed in a HEPES buffer (50 mM pH7.6 1 mM DTT, 2% glycerol, 0.5 mM EDTA) or in a Tris buffer (40 mM pH7.4 1 mM DTT, 5% glycerol, 0.05 mg/ml BSA) respectively, following manufacturer's instructions. Compounds were added to the reaction mixture just prior to the substrate. The enzymatic reaction kinetics was monitored through the apparition of fluorescence due to the hydrolysis of the peptidyl Ub-AMC or Ub-Rho bound over 20 or 30 minutes.

[2] = molecular target: T2, USP8^CD (purified catalytic domain of USP8) (Homo sapiens, UniProt P40818); assay: Inhibition of purified USP8^CD enzymatic activity (Ub-AMC or Ub-Rho substrate); conditions: for inhibition at 1 µM: 1 μM compound; for IC50: Ub-AMC substrate at 1 μM, Table 2b, read-out: IC50 USP8 CD
T2 construct: the purified catalytic domain of USP8 (USP8^CD, in-house purified); made in house; host or cells: E. coli BL21 Gold
T2 sequence (P40818 777-1109 limits assumed): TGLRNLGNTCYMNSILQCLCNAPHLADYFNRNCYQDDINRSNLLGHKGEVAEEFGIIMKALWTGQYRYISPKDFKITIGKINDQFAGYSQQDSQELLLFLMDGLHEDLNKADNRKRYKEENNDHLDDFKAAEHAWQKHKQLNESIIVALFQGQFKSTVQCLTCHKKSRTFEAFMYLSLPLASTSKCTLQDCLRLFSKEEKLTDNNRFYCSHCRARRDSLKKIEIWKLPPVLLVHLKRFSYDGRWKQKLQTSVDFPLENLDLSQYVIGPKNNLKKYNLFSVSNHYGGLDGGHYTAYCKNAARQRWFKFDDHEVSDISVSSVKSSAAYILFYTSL
Description: (§2) USP2CD or USP8CD were expressed in E. coli BL21 Gold. Cells were grown in LB Miller to mid-log phase and induced by addition of 0.5 mM IPTG for USP2CD for 5 h at 20° C., while 1 mM IPTG was added for USP8CD for 3 h at 37° C. Then, cells were harvested and frozen at −80° C.
For His-tagged USP8CD, cells were resuspended in buffer A (50 mM TRIS pH 8.0, 500 mM NaCl, 2 mM Imidazole) and lysed using a sonicator. The lysate was clarified by centrifugation and applied to Ni Sepharose6 Fast Flow resin (GE Healthcare). The resin was sequentially washed first with buffer A containing 10 mM Imidazole then with buffer A containing 20 mM Imidazole, and finally with buffer A containing 50 mM Imidazole. Protein sample was eluted from the resin using buffer A containing 300 mM Imidazole. The eluted protein was buffer exchanged by gel-filtration on a Superdex 200 10/300 GL column (GE Healthcare) equilibrated in Buffer B (20 mM HEPES pH 7.5, 300 mM NaCl, 2 mM dithiothreitol (DTT)).
as §1
(§3) Medium value out of duplicates is reported.

[3] = molecular target: T3, USP2^CD (purified catalytic domain of USP2) (Homo sapiens, UniProt O75604); assay: Inhibition of purified USP2^CD enzymatic activity (Ub-AMC or Ub-Rho substrate); conditions: for IC50: Ub-AMC substrate at 1 μM, Table 2b, read-out: IC50 USP2 CD; for inhibition at 1 µM: 1 μM compound; for inhibition at 5 µM: 5 μM compound
T3 construct: The purified catalytic domain of USP2 (USP2^CD, in-house purified); His; made in house; host or cells: E. coli BL21 Gold
T3 sequence (O75604 267-599 limits assumed): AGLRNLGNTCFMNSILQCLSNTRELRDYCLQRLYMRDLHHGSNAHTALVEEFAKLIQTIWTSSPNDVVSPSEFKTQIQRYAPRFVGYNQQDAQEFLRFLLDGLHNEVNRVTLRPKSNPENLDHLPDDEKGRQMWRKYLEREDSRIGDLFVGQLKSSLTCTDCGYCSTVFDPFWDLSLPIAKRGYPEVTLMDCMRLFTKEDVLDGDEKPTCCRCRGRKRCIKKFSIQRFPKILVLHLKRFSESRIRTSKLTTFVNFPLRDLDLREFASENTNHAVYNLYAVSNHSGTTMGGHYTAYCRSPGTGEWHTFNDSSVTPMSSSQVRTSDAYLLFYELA
Description: as §2
For His-tagged USP2CD, cells were resuspended in buffer C (10 mM TRIS pH 8.0, 100 mM NaCl, 10 mM Imidazole) and lysed using a sonicator. The lysate was clarified by centrifugation and applied to Ni Sepharose6 Fast Flow resin (GE Healthcare). The resin was sequentially washed with buffer C, then with buffer C containing 50 mM Imidazole. Protein sample was eluted from the resin using buffer C containing 250 mM Imidazole. The eluted protein was buffer exchanged by gel-filtration on a Superdex 200 10/300 GL column (GE Healthcare) equilibrated in Buffer D (15 mM Bis-TRIS pH 6.0, 100 mM NaCl, 1 mM dithiothreitol (DTT)).
as §1, §3

[4] = 0.1 μM compound, Ub-AMC at 1 μM, Table 1a
[5] = 0.5 μM compound, Ub-AMC at 1 μM, Table 1a
[6] = 5 μM compound, Ub-AMC at 1 μM, Table 1a
[7] = 25 μM compound, Ub-AMC at 1 μM, Table 1a
[8] = 50 μM compound, Ub-AMC at 1 μM, Table 1a

- inhibition at 1 µM [1]: 0%
- inhibition at 5 µM [1]: 22%
- inhibition at 25 µM [1]: 70%
- inhibition at 50 µM [1]: 99%
- USP8^CD % inhibition [2, 4]: 17%
- USP8^CD % inhibition [2, 5]: 3%
- inhibition at 1 µM ([2]; Ub-AMC at 1 μM, Table 1a): 13%
- USP8^CD % inhibition [2, 6]: 61%
- USP8^CD % inhibition [2, 7]: 97%
- USP8^CD % inhibition [2, 8]: 100%
SMILES: O=C1c2ccccc2C(=O)c2nc(CS(=O)(=O)c3cccs3)c(CS(=O)(=O)c3cccs3)nc21 [PCR7997]

- inhibition at 1 µM [1]: 30%
- inhibition at 5 µM [1]: 50%
- inhibition at 25 µM [1]: 89%
- inhibition at 50 µM [1]: 99%
- IC50 [3]: 6000 nM
- USP8^CD % inhibition [2, 4]: 11%
- USP8^CD % inhibition [2, 5]: 35%
- inhibition at 1 µM ([2]; Ub-AMC at 1 μM, Table 1a): 6%
- USP8^CD % inhibition [2, 6]: 43%
- USP8^CD % inhibition [2, 7]: 90%
- USP8^CD % inhibition [2, 8]: 100%
- IC50 [2]: 2100 nM
SMILES: O=C1c2ccccc2C(=O)c2nc(CCl)c(CCl)nc21 [PCR8146]

- inhibition at 1 µM [1]: 8%
- inhibition at 5 µM [1]: 54%
- inhibition at 25 µM [1]: 98%
- inhibition at 50 µM [1]: 98%
- inhibition at 1 µM ([2]; Ub-AMC at 1 μM, Table 1a): 0%
- USP8^CD % inhibition [2, 6]: 22%
- USP8^CD % inhibition [2, 7]: 100%
- USP8^CD % inhibition [2, 8]: 100%
SMILES: O=C1c2ccccc2C(=O)c2nc(C=C3CCCC3)c(C=C3CCCC3)nc21 [PCR8153]

- inhibition at 1 µM [1]: 0%
- inhibition at 5 µM [1]: 28%
- inhibition at 25 µM [1]: 58%
- inhibition at 50 µM [1]: 94%
- USP8^CD % inhibition [2, 4]: 6%
- USP8^CD % inhibition [2, 5]: 25%
- inhibition at 1 µM ([2]; Ub-AMC at 1 μM, Table 1a): 7%
- USP8^CD % inhibition [2, 6]: 43%
- USP8^CD % inhibition [2, 7]: 100%
- USP8^CD % inhibition [2, 8]: 86%
SMILES: CC/C=C/c1nc2c(nc1/C=C/CC)C(=O)c1ccccc1C2=O [PCR8156]

- inhibition at 0.01 µM ([3]; 0.01 μM compound, Table 1c): -11%
- inhibition at 0.05 µM ([3]; 0.05 μM compound, Table 1c): -16%
- inhibition at 0.1 µM ([3]; 0.1 μM compound, Table 1c): -13%
- inhibition at 0.5 µM ([3]; 0.5 μM compound, Table 1c): 11%
- inhibition at 1 µM ([3]; Table 1b): 24%
- inhibition at 1 µM ([3]; Table 1c): -17%
- inhibition at 5 µM ([3]; Table 1b): 51%
- inhibition at 5 µM ([3]; Table 1c): 20%
- inhibition at 10 µM ([3]; 10 μM compound, Table 1c): 27%
- inhibition at 25 µM ([3]; 25 μM compound, Table 1b): 63%
- inhibition at 50 µM ([3]; 50 μM compound, Table 1b): 76%
- IC50 [3]: > 10000 nM
- inhibition at 0.01 µM ([2]; 0.01 μM compound, Table 1d): 19%
- inhibition at 0.05 µM ([2]; 0.05 μM compound, Table 1d): -2%
- inhibition at 0.1 µM ([2]; 0.1 μM compound, Table 1d): 26%
- inhibition at 0.5 µM ([2]; 0.5 μM compound, Table 1d): 26%
- inhibition at 1 µM ([2]; Table 1b): 54%
- inhibition at 1 µM ([2]; Table 1d): 44%
- inhibition at 5 µM ([2]; 5 μM compound, Table 1b): 94%
- inhibition at 5 µM ([2]; 5 μM compound, Table 1d): 100%
- inhibition at 10 µM ([2]; 10 μM compound, Table 1d): 91%
- inhibition at 25 µM ([2]; 25 μM compound, Table 1b): 101%
- inhibition at 50 µM ([2]; 50 μM compound, Table 1b): 100%
- IC50 [2]: 1200 nM
SMILES: CCCCCS(=O)(=O)Cc1nc2c(nc1CS(=O)(=O)CCCCC)C(=O)c1ccccc1C2=O [VIN6077]
